In US7087631B2, “Aryltetrazole compounds, and compositions thereof” (Inotek Pharmaceuticals Corporation, priority 2002, dated 2006):

How the values were obtained:
[1] = system: thioacetamide model of hepatic failure; test: Toxic liver injury model (thioacetamide model of hepatic failure), serum AST; type: in vivo; conditions: mice; for serum AST levels (result in words): summary of the table; for Percent Inhibition of Serum AST Levels: thioacetamide 400 mg/kg i.p., mean ±SEM (n=7-10)
Experimental: Illustrative 5-Aryltetrazole Compounds exert hepatoprotective effects in a thioacetamide model of hepatic failure. […] […] Results are expressed as percent inhibtion, mean ±SEM (n=7-10). Studies were conducted as described in Biochim. Biophys. Acta. 1536(1):21-30 (2001).

xanthine oxidase = xanthine oxidase (Homo sapiens, UniProt P47989); test: Xanthine oxidase inhibitory activity, 96 well plate, kinetic reading at 295 nm; type: biochemical
gut ischemia reperfusion = test: Gut ischemia reperfusion-induced hyperpermeability and mortality; type: in vivo; conditions: mice; for Gut Permeability: intraperitoneal, control 100%
Experimental: Illustrative 5-Aryltetrazole Compounds exert protective effects in various models of organ ischemia and reperfusion. For example, intraperitoneal administration of illustrative 5-Aryltetrazole Compounds retards the progression of gut ischemia reperfusion-induced hyperpermeability and mortality in mice. Results are expressed as % decrease in gut hyperpermeability and as mortality as observed after 6 hours and 2 days of reperfusion. Studies were conducted as described in Shock, 14(2): 134-141 (2000). There was a notable dose-dependent effect on gut hyperpermeability and there was an improvement in survival rate, as tested at the highest dose of both levels.

xanthine oxidase, sequence (P47989 whole entry, species assumed, the tested form may be a part): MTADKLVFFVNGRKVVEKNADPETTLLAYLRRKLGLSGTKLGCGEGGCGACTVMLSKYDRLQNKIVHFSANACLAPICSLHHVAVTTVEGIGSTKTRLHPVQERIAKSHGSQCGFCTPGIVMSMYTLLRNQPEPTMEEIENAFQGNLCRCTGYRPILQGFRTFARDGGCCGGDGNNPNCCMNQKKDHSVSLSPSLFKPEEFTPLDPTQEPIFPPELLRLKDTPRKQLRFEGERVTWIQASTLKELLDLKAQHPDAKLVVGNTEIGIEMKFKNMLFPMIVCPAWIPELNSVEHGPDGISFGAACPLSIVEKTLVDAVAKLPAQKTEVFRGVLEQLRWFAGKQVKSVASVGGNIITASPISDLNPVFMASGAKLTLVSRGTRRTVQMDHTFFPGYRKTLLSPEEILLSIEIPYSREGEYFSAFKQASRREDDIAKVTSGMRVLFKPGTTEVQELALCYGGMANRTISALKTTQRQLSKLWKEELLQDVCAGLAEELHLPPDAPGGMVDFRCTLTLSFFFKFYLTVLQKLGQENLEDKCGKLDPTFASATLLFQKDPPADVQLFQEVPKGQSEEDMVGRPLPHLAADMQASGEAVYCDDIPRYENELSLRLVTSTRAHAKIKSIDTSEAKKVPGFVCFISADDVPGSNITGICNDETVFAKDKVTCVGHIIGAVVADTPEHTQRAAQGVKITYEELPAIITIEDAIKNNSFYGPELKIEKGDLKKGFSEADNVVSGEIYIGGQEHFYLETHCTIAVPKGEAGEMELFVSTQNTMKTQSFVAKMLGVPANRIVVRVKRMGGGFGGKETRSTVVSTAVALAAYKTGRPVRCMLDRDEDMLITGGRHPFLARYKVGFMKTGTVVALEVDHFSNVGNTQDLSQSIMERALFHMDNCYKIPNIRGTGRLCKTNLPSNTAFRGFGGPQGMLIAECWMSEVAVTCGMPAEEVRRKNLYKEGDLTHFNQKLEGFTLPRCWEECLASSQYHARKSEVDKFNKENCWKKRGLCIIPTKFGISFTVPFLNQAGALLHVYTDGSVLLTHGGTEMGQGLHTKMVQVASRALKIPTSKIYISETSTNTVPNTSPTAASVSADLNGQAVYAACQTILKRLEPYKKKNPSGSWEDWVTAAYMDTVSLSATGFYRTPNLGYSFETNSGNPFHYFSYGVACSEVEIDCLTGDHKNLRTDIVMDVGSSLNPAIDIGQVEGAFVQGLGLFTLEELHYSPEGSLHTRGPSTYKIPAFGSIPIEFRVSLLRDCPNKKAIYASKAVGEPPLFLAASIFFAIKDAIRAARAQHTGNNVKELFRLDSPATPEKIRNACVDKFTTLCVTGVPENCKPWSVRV

Row | SMILES | PERCENT XANTHINE OXIDASE INHIBITION (xanthine oxidase; compound concentration 0.03 μM) | PERCENT XANTHINE OXIDASE INHIBITION (xanthine oxidase; compound concentration 0.1 μM) | PERCENT XANTHINE OXIDASE INHIBITION (xanthine oxidase; compound concentration 1 μM) | PERCENT XANTHINE OXIDASE INHIBITION (xanthine oxidase; compound concentration 100 μM) | other results
1 | O=C(Nc1ccccc1)c1ccc(-c2nn[nH]n2)cc1 [Compound IC] | 60% | 81% | 100% |  | serum AST levels (result in words) [1]: inhibit serum AST levels; Percent Inhibition of Serum AST Levels ([1]; single oral dose 3 mg/kg): 3 ± 8%; Percent Inhibition of Serum AST Levels ([1]; single oral dose 10 mg/kg): 20 ± 5%
2 | Cc1ccc(NC(=O)c2ccc(-c3nnn[nH]3)cc2)cc1 [Compound JN] | 20% | 41% | 88% |  | Percent Inhibition of Serum AST Levels ([1]; single oral dose 3 mg/kg): 11 ± 7%; Percent Inhibition of Serum AST Levels ([1]; single oral dose 10 mg/kg): 31 ± 7%
3 | O=C(O)c1ccc(NC(=O)c2ccc(-c3nnn[nH]3)cc2)cc1 [Compound IS] | 44% | 68% | 97% |  | serum AST levels (result in words) [1]: inhibit serum AST levels; Percent Inhibition of Serum AST Levels ([1]; single oral dose 10 mg/kg): 33 ± 5%
4 | CC(C)c1ccc(NC(=O)c2ccc(-c3nnn[nH]3)cc2)cc1 [Compound IP] | 28% | 52% | 92% |  | serum AST levels (result in words) [1]: inhibit serum AST levels; Percent Inhibition of Serum AST Levels ([1]; single oral dose 3 mg/kg): 23 ± 8%; Percent Inhibition of Serum AST Levels ([1]; single oral dose 10 mg/kg): 41 ± 8%
5 | O=C(Nc1ccc(Cl)cc1)c1ccc(-c2nnn[nH]2)cc1 [IX] | 46% | 74% | 98% |  | serum AST levels (result in words) [1]: inhibit serum AST levels; Percent Inhibition of Serum AST Levels ([1]; single oral dose 10 mg/kg): 31 ± 1%
6 | CC(C)Cc1ccc(NC(=O)c2ccc(-c3nnn[nH]3)cc2)cc1 [Compound IG] | 33% | 59% | 93% |  | serum AST levels (result in words) [1]: inhibit serum AST levels; Percent Inhibition of Serum AST Levels ([1]; single oral dose 3 mg/kg): 25 ± 4%; Percent Inhibition of Serum AST Levels ([1]; single oral dose 10 mg/kg): 46 ± 8%; Survival % (6 h) (gut ischemia reperfusion; 30 mg/kg, 6 hours of reperfusion, control 60): 87%; Survival % (2 days) (gut ischemia reperfusion; 30 mg/kg, 2 days of reperfusion, control 0): 20%; Gut Permeability (gut ischemia reperfusion; 3 mg/kg): 73%; Gut Permeability (gut ischemia reperfusion; 10 mg/kg): 69%; Gut Permeability (gut ischemia reperfusion; 30 mg/kg): 47%
7 | CCc1ccc(NC(=O)c2ccc(-c3nnn[nH]3)cc2)cc1 [JM] | 16% | 38% | 89% |  | Percent Inhibition of Serum AST Levels ([1]; single oral dose 3 mg/kg): 12 ± 7%; Percent Inhibition of Serum AST Levels ([1]; single oral dose 10 mg/kg): 31 ± 7%
8 | CNC(=O)Nc1ccc(-c2nnn[nH]2)cc1 [FS] |  |  |  | 10% | 
9 | O=C(Nc1ccc(Cl)cc1Cl)c1ccc(-c2nnn[nH]2)cc1 [IY] | 26% | 47% | 86% |  | 
10 | O=C(OCCN1CCCC1)c1ccc(-c2nnn[nH]2)cc1 [GL] |  |  | 4% |  | 
11 | N#Cc1cc(-c2nnn[nH]2)ccc1C(=O)Nc1ccncc1 [JG] | 33% | 61% | 93% |  | 
12 | O=C(OCCN1CCOCC1)c1ccc(-c2nnn[nH]2)cc1 [GK] |  | 12% | 46% |  | PERCENT XANTHINE OXIDASE INHIBITION (xanthine oxidase; compound concentration 0.01 μM): 3%
13 | Fc1ccc(-c2nnn[nH]2)cc1 [FM] |  |  |  | 78% | PERCENT XANTHINE OXIDASE INHIBITION (xanthine oxidase; compound concentration 10 μM): 19%
14 | O=C(OCc1ccc(Br)cc1)c1ccc(-c2nnn[nH]2)cc1 [GU] |  | 69% | 94% |  | PERCENT XANTHINE OXIDASE INHIBITION (xanthine oxidase; compound concentration 0.01 μM): 17%
15 | c1cc(-c2nnn[nH]2)ccc1OCC1CCCCC1 [IN] |  | 21% | 68% |  | xanthine oxidase activity (result in words) (xanthine oxidase; summary of the table): inhibit xanthine oxidase activity
16 | C#CCCCOC(=O)c1ccc(-c2nnn[nH]2)cc1 [GM] |  | 28% | 76% |  | PERCENT XANTHINE OXIDASE INHIBITION (xanthine oxidase; compound concentration 0.01 μM): 8%
17 | O=C(NC1CCCCC1)c1ccc(-c2nnn[nH]2)cc1 [HA] |  | 10% | 61% |  | 
18 | O=C(Nc1ccccc1)c1ccc(-c2nnn[nH]2)cc1Cl [JJ] |  |  | 0% |  | 

Row | SMILES | PERCENT XANTHINE OXIDASE INHIBITION (xanthine oxidase; compound concentration 0.03 μM) | PERCENT XANTHINE OXIDASE INHIBITION (xanthine oxidase; compound concentration 0.1 μM) | PERCENT XANTHINE OXIDASE INHIBITION (xanthine oxidase; compound concentration 1 μM) | PERCENT XANTHINE OXIDASE INHIBITION (xanthine oxidase; compound concentration 100 μM) | other results
19 | O=C(Nc1cccc(F)c1)c1ccc(-c2nnn[nH]2)cc1 [HW] | 32% | 62% | 89% |  | 
20 | c1ccc(COc2ccc(-c3nnn[nH]3)cc2)cc1 [IV] |  | 10% | 35% |  | 
21 | Cc1cc(C(=O)Nc2ccccc2)ccc1-c1nnn[nH]1 [JK] |  |  | 0% |  | 
22 | CC(=O)c1ccc(-c2nnn[nH]2)cc1 [FU] |  |  | 9% | 92% | PERCENT XANTHINE OXIDASE INHIBITION (xanthine oxidase; compound concentration 10 μM): 54%
23 | O=S(=O)(NC1CCCCC1)c1ccc(-c2nnn[nH]2)cc1 [HV] |  |  | 0% |  | 
24 | CC(=O)Nc1ccc(-c2nn[nH]n2)cc1 [Compound FR] |  |  |  | 40% | 
25 | O=C(Nc1ccc(Cl)c(Cl)c1)c1ccc(-c2nnn[nH]2)cc1 [JL] | 34% | 68% | 95% |  | 
26 | O=C(OCc1ccccc1)c1ccc(-c2nnn[nH]2)cc1 [GA] |  |  | 78% | 100% | PERCENT XANTHINE OXIDASE INHIBITION (xanthine oxidase; compound concentration 10 μM): 100%
27 | O=C(OCC1CC1)c1ccc(-c2nnn[nH]2)cc1 [GB] |  |  | 82% | 100% | PERCENT XANTHINE OXIDASE INHIBITION (xanthine oxidase; compound concentration 10 μM): 97%
28 | O=C(O)c1cccc(NC(=O)c2ccc(-c3nnn[nH]3)cc2)c1 [IB] | 38% | 64% | 94% |  | 
29 | O=C(OCc1cccc(Cl)c1)c1ccc(-c2nnn[nH]2)cc1 [GD] |  |  | 79% | 100% | PERCENT XANTHINE OXIDASE INHIBITION (xanthine oxidase; compound concentration 10 μM): 82%
30 | O=C(/C=C/c1ccccc1)Nc1nnn[nH]1 [Compound HN] |  |  | 10% | 42% | PERCENT XANTHINE OXIDASE INHIBITION (xanthine oxidase; compound concentration 10 μM): 13%
31 | O=C(NCc1ccc2c(c1)OCO2)c1ccc(-c2nnn[nH]2)cc1 [HB] |  |  | 25% |  | 
32 | O=C(O)c1ccc(-c2nnn[nH]2)cc1 [FY] |  |  | 11% | 91% | PERCENT XANTHINE OXIDASE INHIBITION (xanthine oxidase; compound concentration 10 μM): 56%
33 | O=C(NC12CC3CC(CC(C3)C1)C2)c1ccc(-c2nnn[nH]2)cc1 [HT] | 15% | 23% | 62% |  | 
34 | O=C(Oc1cc[n+]([O-])cc1)c1ccc(-c2nnn[nH]2)cc1 [GN] |  |  | 9% |  | 
35 | COc1ccc2cc(-c3nnn[nH]3)ccc2c1 [JR] |  |  | 14% | 85% | PERCENT XANTHINE OXIDASE INHIBITION (xanthine oxidase; compound concentration 10 μM): 56%
36 | c1cncc(-c2cccc(-c3nnn[nH]3)c2)c1 [HJ] |  |  |  | 2% | 
